Assay results taken from patent publication US20060105967A1, “Flavone derivatives as TNFalpha inhibitors or antagonists” (Advanced Gene Technology, Corp., priority 2004, published 2006).

Experiments:
TNFα = biological target: T1, TNFα (Homo sapiens, UniProt P01375); experiment: L929 cell proliferation/cytotoxicity assay, TNFα activity assay; type: cell-based
T1 construct: purchased
Method: (§1) L929 cells were cultured in Eagle's Minimal Essential Medium (MEM) containing 10% equine serum, 1% P/S and 1% non-essential amino acid. Confluent L929 cells were washed with 2 ml PBS (phosphate-buffered saline) solution and then trypsinized with 1 ml 1×trypsin, followed by resuspending in complete medium. Two hundred microliter of cell suspension was aspirated for cell density counting. […]. Add 100 μl of cell suspension to each well in 96-well flat-bottomed microtitre plates and incubated for 24 hrs in 5% CO2 atmosphere at 37° C. incubator.
Crude herbal extracts were resuspended in 1×PBS and sterilized with 0.22 μm filters. Varying concentrations of herbal extract were incubated for 1 hr with equal volume of commercial TNFα 0.2 ng/ml. Before the end of the 1 hr pre-incubation, removing the medium from the 24 hr incubated 96-well plate, and added a 50 μl fresh medium containing 4 μg/ml of Actinomycin D into the 96-well plate. Transferred the 50 μl of pre-incubated mixture of herbal extraction and TNFα to the 96-well plate with the medium containing Act D to give the final concentration of Act D (2 μg/ml), TNFα(0.1 ng/ml). […]
The same samples as those for TNFα activity assay were added to the 96-well plate with the medium containing Act D to give the final concentration of Act D 2 μg/ml. […] Read with ELISA (enzyme-linked immunosorbent assay) reader at O.D (optical density) 490/630 nm. […]

L929 cells = experiment: Cytotoxicity in L929 cells (XTT); type: cell-based; details: Act D 2 μg/ml, 24 hrs
Method: as §1
The same samples as those for TNFα activity assay were added to the 96-well plate with the medium containing Act D to give the final concentration of Act D 2 μg/ml. Mixed well by gently shaking and then incubated for 24 hrs in 5% CO2 atmosphere at 37° C. incubator. 50 μl XTT mixture (XTT−1: XTT−2=50:1) was added to each well, and incubated in a CO2 incubator for 4 hrs. Read with ELISA (enzyme-linked immunosorbent assay) reader at O.D (optical density) 490/630 nm. […]. Quercitrin and Myricitrin Identification (1) Thin-Layer Chromatography

[1] = tested on: rats with collagen-induced arthritis; experiment: Anti-inflammatory effect on rats with collagen-induced arthritis; type: in vivo, rat; details: for decreased percentage of edema: IP
From the text: SD rats of SPF grade were supplied from BioLasco. Prior to performing the study, the animals were accommodated for 4 days after being received. Weighing, blood sampling, measuring the paw volumes and other related records for each animal were established. The rats were immunized and boosted with bovine collagen II-EFA (Incomplete Freund's Adjuvant, from Sigma) to induce arthritis (CIA). The CIA rats were grouped into 6 groups and daily injected with the drug candidates (myricitrin and quercetin-3-D-glucoside respectively). Dexamethasone (0.2 mg) was used as a positive control and 5% ethanol as a negative control. Treatment period was 7 days. Body weight and paw volumes were measured and blood sampling were collected at day 0, 3, 6, 10 and 14.
Six days after the final dosing, all the animals were sacrificed. The affected hind limbs were removed for histological assessment. The parameters of body weights and paw volumes were measured and compared for before, during and after treatment with drug candidates.

[2] = CIA rats, 3rd day after treatment stopped (T4)
[3] = CIA rats, 7th day after treatment stopped (T5)

T1 sequence (P01375 77-233 limits assumed, species assumed): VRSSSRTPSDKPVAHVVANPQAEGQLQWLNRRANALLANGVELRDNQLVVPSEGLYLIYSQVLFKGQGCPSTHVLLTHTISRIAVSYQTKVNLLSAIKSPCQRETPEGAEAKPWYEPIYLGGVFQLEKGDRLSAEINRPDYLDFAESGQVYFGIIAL

SMILES | IC50 (TNFα) [µM] | cell cytotoxicity (L929 cells) | histopathological changes of joint ([1]; CIA rats treated (IP), hind limbs removed six days after final dosing) | decreased percentage of edema [1, 2] [%] | decreased percentage of edema [1, 3] [%] | decreased percentage of edema volumes for hind paws ([1]; CIA rats, daily injection (IP), treatment period / day 6 of treatment (T3), vs non-treatment paw volume) [%]
C[C@@H]1O[C@@H](Oc2c(-c3ccc(O)c(O)c3)oc3cc(O)cc(O)c3c2=O)[C@H](O)[C@H](O)[C@H]1O [quercitrin] | 161 | without cell cytotoxicity |  |  |  | 
O=c1c(O[C@@H]2O[C@H](CO)[C@@H](O)[C@H](O)[C@H]2O)c(-c2ccc(O)c(O)c2)oc2cc(O)cc(O)c12 [quercetin-3-D-glucoside] | 95.7 |  | proliferation of synovial ling cell and infiltration of lymphocytes was shown | 24.93 | 80.47 | 8.59
C[C@@H]1C[C@H]2[C@@H]3CCC4=CC(=O)C=C[C@]4(C)[C@@]3(F)[C@@H](O)C[C@]2(C)[C@@]1(O)C(=O)CO [dexamethasone, reference compound] |  |  |  | 28.21 | 29.97 | 
